The text below walks through data of ChEMBL document CHEMBL2375345, “New antiprotozoal agents: their synthesis and biological evaluations” (Bioorg Med Chem Lett, 2013).

The subject of series [1] is Trypanosoma cruzi. The series can be described thus: Antiprotozoal activity against epimastigote form of Trypanosoma cruzi Tulahuen 2 assessed as parasite growth inhibition measured at day 5. It is filed as functional, organism-based. The settings on record: Tulahuen 2, 120 h.
Series [2] in a line: Selectivity index, ratio of CC50 for human MRC5 cells to IC50 for epimastigote form of Trypanosoma cruzi Tulahuen 2. It is filed as functional.
For series [3], the system named is Trypanosoma brucei rhodesiense. In words: Antiprotozoal activity against trypomastigote form of Trypanosoma brucei rhodesiense STIB900 assessed as parasite growth inhibition after 72 hrs by Alamar blue assay. The series is classed as functional, organism-based. The settings on record: STIB900, 72 h. In general terms: Alamar Blue is a resazurin reagent that responds to reducing activity.

Series [4] deals with Trypanosoma brucei brucei. In words: Antiprotozoal activity against trypomastigote form of Trypanosoma brucei brucei 427 assessed as parasite growth inhibition. It is filed as functional, organism-based.
Series [5] concerns Leishmania infantum. The series can be described thus: Antiprotozoal activity against amastigote form of Leishmania infantum MHOM/MA(BE)/67 infected in mouse peritoneal macrophages assessed as reduction of intracellular parasite burden after 5 days by Giemsa staining method. The series is classed as functional, organism-based. The note with it: MHOM/MA(BE)/67, 120 h.
A short description of series [6]: Selectivity index, ratio of CC50 for human MRC5 cells to IC50 for trypomastigote form of Trypanosoma brucei brucei 427. The series is classed as functional.
Series [7] is described as follows: Cytotoxicity against human MRC5 cells assessed as cell viability after 7 days by Alamar blue assay. It is filed as cell-based.
Series [8] in a line: Selectivity index, ratio of CC50 for human MRC5 cells to IC50 for trypomastigote form of Trypanosoma brucei rhodesiense STIB900. The series is classed as functional.
A short description of series [9]: Selectivity index, ratio of CC50 for human MRC5 cells to IC50 for amastigote form of Leishmania infantum MHOM/MA(BE)/67. It is filed as functional.

With `CC(C)(C)OC(=O)NCC(=O)O/N=C1\c2ccccc2-c2c1c(N1CCN(c3ccccn3)CC1)nc1ccc(Br)cc21`, the IC50 (in general, the point on the concentration scale where inhibition reaches its midpoint) came out at 6.82 µM in series [1], 1200 nM in [3], 6050 nM in series [4] and 5.08 µM in series [5]. The “Ratio CC50/IC50” value in series [2] was 9.38; in [6], 10.58; in series [8], 53.33; in series [9], 12.6. Further, the CC50 (usually the concentration giving 50% cytotoxicity) at 168 h in [7] stood at 64 µM.
With `CCCC(=O)O/N=C1\c2ccccc2-c2c1c(-n1ccnc1)nc1ccc(Br)cc21`, the IC50 in series [1] is 2.38 µM; in [3], 5140 nM; in series [4], 8170 nM; in [5], 6.01 µM. Further, the “Ratio CC50/IC50” value in [2] came out at 3.45; in series [6], 1; in series [8], 1.6; in series [9], 1.37. The CC50 at 168 h in series [7] was found to be 8.23 µM.
For the compound `CC(C)(C)OC(=O)NC(C(=O)O/N=C1\c2ccccc2-c2c1c(N1CCN(c3ccccn3)CC1)nc1ccc(Br)cc21)C(C)(C)C` (configuration not stated), the IC50 in series [1] turned out to be 7.87 µM; in series [3] it was 1360 nM; in [4], 2160 nM; in series [5], 5.66 µM. Besides, the “Ratio CC50/IC50” value in series [2] came to 4.52; in [6], 16.48; in series [8] it was 26.17; in [9] it was 6.29. The half-maximal cytotoxic concentration (CC50) at 168 h in series [7] came to 35.6 µM.
For the compound `CSCCC(NC(=O)OC(C)(C)C)C(=O)O/N=C1\c2ccccc2-c2c1c(N1CCN(c3ccccn3)CC1)nc1ccc(Br)cc21` (configuration not stated), the IC50 in series [1] was found to be 7.39 µM; in [3], 1440 nM; in [4], 2400 nM; in [5], 9.51 µM. For the same compound, the “Ratio CC50/IC50” value in [2] worked out at 8.66; in [6], 26.66; in series [8], 44.44; in [9], 6.73. Moreover, the CC50 at 168 h in series [7] was 64 µM.
In the case of `CC(C)(C)OC(=O)N1CCCC1C(=O)O/N=C1\c2ccccc2-c2c1c(-n1ccnc1)nc1ccc(Br)cc21` (configuration not stated), the IC50 amounted to 7.38 µM in series [1], 4330 nM in [3], 7310 nM in series [4] and 12.7 µM in series [5]. The “Ratio CC50/IC50” value was 1.08 in series [2], 1.09 in [6], 1.85 in series [8] and 0.63 in series [9]. Further, the CC50 at 168 h in [7] was found to be 8 µM.
`O=[N+]([O-])c1ccc2nc(Oc3ccc(F)cc3C(O)CN3CCCCC3)c(Cc3ccccc3)cc2c1` (configuration not stated): the half-maximal inhibitory concentration (IC50) in series [1] turned out to be 2 µM; in series [3], 1220 nM; in series [4], 2010 nM; in series [5] it was 2.16 µM. Further, the “Ratio CC50/IC50” value is recorded as 2.2 in series [2], 4.31 in [6], 8.8 in [8] and 1.29 in series [9].
`COc1cccc(-c2ccn(CC(O)c3cc(F)ccc3Oc3nc4ccc([N+](=O)[O-])cc4cc3Cc3ccccc3)n2)c1` (configuration not stated): the IC50 turned out to be 6.01 µM in series [1], 2080 nM in series [3], 2400 nM in series [4] and 8 µM in series [5]. For the same compound, in series [7], the CC50 at 168 h came to 64 µM. The Ratio CC50/IC50 in series [8] was 30.8.
In the case of `COc1ccc(-c2ccn(CC(O)c3cc(F)ccc3Oc3nc4ccc([N+](=O)[O-])cc4cc3Cc3ccccc3)n2)cc1` (configuration not stated), the IC50 in series [1] stood at 64 µM; in series [3], 710 nM; in [4], 2120 nM; in [5] it was 20.3 µM. Further, the “Ratio CC50/IC50” value turned out to be 33.16 in [2], 31.37 in series [6], 31.52 in series [8] and 3.15 in series [9].
